Measured values published in US9895409B2, “Remedy for gastritis and gastric ulcer” (priority 2011, dated 2018).

What was measured:
Assay type in all cases: in vivo, Wistar rats
[1] = test system: gastric ulcer induced by aspirin; assay: Gastric ulcer index in rats with stomach damage induced by aspirin (method of Dekanski et al.); settings: oral, once every day for 5 weeks; aspirin 50 mg/kg BW; salt 0.167 g/kg BW; glibenclamide 10 mg/kg BW; n=8
Procedure: In order to measure an effect on preventing stomach damage, five-week Wistar rats were purchased from Central Lab. Animal Inc., Seoul, Korea. A breeding room was set to be 20° C. of the temperature, 50 to 60% of relative humidity, and 12 hours of lighting cycle, and water and food were set to be freely taken. The test animals were accommodated for 2 weeks using a general feed prepared on the basis of AlN-93G, and then, the weights of the animals were measured to divide them into each of test groups (n=8). Since then, the test groups were a normal group (Con) injected with distilled water only, a control group (NaCl) injected with pure sodium chloride (NaCl, 0.167 g/kg BW) that was a main ingredient of salt only, and a heat-treated salt-treating group injected with heat-treated purple salt (0.167 g/kg BW), in which each of sample solutions was orally injected along with aspirin (50 mg/kg BW) once every day for 5 weeks. In addition, glibenclamide (10 mg/kg BW) solution inhibiting KATP channel dissolved in 0.01 N NaOH including 4% glucose was abdominally injected 1 hour before orally injecting aspirin (50 mg/kg BW) and heat-treated salt (0.167 g/kg BW), and performed once every day for 5 weeks. […]
An effect of the heat-treated purple salt obtained in Example 2 on suppressing gastric ulcer was measured.

[2] = test system: damage of gastric mucous membrane induced by aspirin; assay: Damage of gastric mucous membrane measured as stomach thickness in rats with stomach damage induced by aspirin; settings: oral, once every day for 5 weeks; aspirin 50 mg/kg BW; salt 0.167 g/kg BW; glibenclamide 10 mg/kg BW; ocular micrometer
Procedure: In order to measure an effect on preventing stomach damage, five-week Wistar rats were purchased from Central Lab. Animal Inc., Seoul, Korea. A breeding room was set to be 20° C. of the temperature, 50 to 60% of relative humidity, and 12 hours of lighting cycle, and water and food were set to be freely taken. The test animals were accommodated for 2 weeks using a general feed prepared on the basis of AlN-93G, and then, the weights of the animals were measured to divide them into each of test groups (n=8). Since then, the test groups were a normal group (Con) injected with distilled water only, a control group (NaCl) injected with pure sodium chloride (NaCl, 0.167 g/kg BW) that was a main ingredient of salt only, and a heat-treated salt-treating group injected with heat-treated purple salt (0.167 g/kg BW), in which each of sample solutions was orally injected along with aspirin (50 mg/kg BW) once every day for 5 weeks. […] A degree of the damage of gastric mucous membrane of the heat-treated purple salt obtained in Example 2 was measured by measuring a stomach thickness. […] Since then, the stomach thicknesses were measured using an ocular micrometer.

[3] = test system: stomach damage induced by aspirin; assay: Effect on preventing stomach damage in rats with stomach damage induced by aspirin (microscopic observation of opened stomach); settings: oral, once every day for 5 weeks; aspirin 50 mg/kg BW; salt 0.167 g/kg BW; glibenclamide 10 mg/kg BW abdominally 1 hour before
Procedure: In order to measure an effect on preventing stomach damage, five-week Wistar rats were purchased from Central Lab. Animal Inc., Seoul, Korea. A breeding room was set to be 20° C. of the temperature, 50 to 60% of relative humidity, and 12 hours of lighting cycle, and water and food were set to be freely taken. The test animals were accommodated for 2 weeks using a general feed prepared on the basis of AlN-93G, and then, the weights of the animals were measured to divide them into each of test groups (n=8). Since then, the test groups were a normal group (Con) injected with distilled water only, a control group (NaCl) injected with pure sodium chloride (NaCl, 0.167 g/kg BW) that was a main ingredient of salt only, and a heat-treated salt-treating group injected with heat-treated purple salt (0.167 g/kg BW), in which each of sample solutions was orally injected along with aspirin (50 mg/kg BW) once every day for 5 weeks. In addition, glibenclamide (10 mg/kg BW) solution inhibiting KATP channel dissolved in 0.01 N NaOH including 4% glucose was abdominally injected 1 hour before orally injecting aspirin (50 mg/kg BW) and heat-treated salt (0.167 g/kg BW), and performed once every day for 5 weeks. The respective treating groups were fasted for 24 hours before sacrificing; sacrificed; and then, the stomach was removed.

CC(=O)Oc1ccccc1C(=O)O [aspirin]
gastric ulcer index (FIG. 3) [1]: 37.3±10.4
stomach thickness (FIG. 4) [2]: very thin as compared with the normal group
stomach damage (bleeding, inflammation, mucosa) observed with optical microscope (FIG. 2) [3]: severe damage along with gastric hemorrhage
